Entries after “also recorded” stand apart in the source; their conditions may differ.
Experiments:
Format in all cases: in vivo, neonatal pigs
MURF1 = assay: Expression of MURF1 in muscles, immunoblotting; conditions: one hour
Experimental: (§1) Overnight fasted neonatal pigs (5-7 days old) were infused with HMB at 0, 20, 100, or 400 μmol·kg^−1·hr^−1 HMB. Blood plasma concentrations of the following circulating substrates were measured.
(§2) At the end of the infusion, the piglets were sacrificed and the fractional protein synthesis rates were measured by measuring ^3H incorporation into protein fractions after a flooding dose of L[4-^3H]phenylalanine using the method set forth in Garlick, P. J., “A rapid and convenient technique for measuring the rate of protein synthesis in tissues by injection of [3H]Phenylalanine,” Biochem J (1980), Vol. 192, 719-723. Activation of translation initiation was measured in the stomach, duodenum, jejunum, colon, pancreas, kidney, brain and skin. The abundance of intracellular proteins involved in signaling of protein synthesis and in processes related to protein degradation was measured in tissue homogenates by immunoblotting using commercially available antibodies.

elF2α = assay: Phosphorylation of elF2α in muscles, immunoblotting; conditions: one hour
Experimental: as §1, §2

[1] = tested on: protein synthesis in the lung and spleen; assay: Fractional protein synthesis rate in lung and spleen; conditions: 20 μmol·kg^−1·hr^−1 HMB for one hour
Experimental: as §1, §2

eEF2 = assay: Phosphorylation of eEF2 in muscles, immunoblotting; conditions: one hour
Experimental: as §1, §2

S6K1 = assay: Phosphorylation of S6K1 in muscles, immunoblotting; conditions: one hour
Experimental: as §1, §2

amino acid transporters = assay: Level of amino acid transporters in piglet tissues; conditions: HMB-infused piglets
Experimental: as §2

Atrogin-1 = assay: Expression of Atrogin-1 in muscles, immunoblotting; conditions: one hour
Experimental: as §1, §2

[2] = tested on: protein synthesis in skeletal muscles (longissimus dorsi, gastrocnemius, soleus, diaphragm); assay: Fractional protein synthesis rate in skeletal muscles, L[4-3H]phenylalanine flooding dose
Experimental: as §1, §2

4EBP1 = assay: Phosphorylation of 4EBP1 in muscles, immunoblotting; conditions: one hour
Experimental: as §1, §2

e1F4E•e1F4G complex = assay: Formation of the active e1F4E•e1F4G complex in muscles (FIG. 11); conditions: one hour
Experimental: as §1, §2

LC3-II/LC3-I = assay: Ratio of LC3-II/LC3-I in muscles (autophagy/lysosomal protein degradation); conditions: one hour
Experimental: as §1, §2

[3] = 20 μmol·kg^−1·hr^−1 HMB, diaphragm
[4] = 20 μmol·kg^−1·hr^−1 HMB, longissimus dorsi, gastrocnemius, soleus
[5] = 100 μmol·kg^−1·hr^−1 HMB, diaphragm
[6] = 100 μmol·kg^−1·hr^−1 HMB, longissimus dorsi, gastrocnemius, soleus

CC(C)(O)CC(=O)O [HMB, beta-hydroxy-beta-methylbutyric acid]
expression of MURF1 (MURF1; 20 μmol·kg^−1·hr^−1 HMB): did not affect
expression of MURF1 (MURF1; 100 μmol·kg^−1·hr^−1 HMB): did not affect
phosphorylation of elF2a (elF2α; 20 μmol·kg^−1·hr^−1 HMB): did not affect
phosphorylation of elF2a (elF2α; 100 μmol·kg^−1·hr^−1 HMB): did not affect
fractional rate of protein synthesis in lung and spleen [1]: increased
phosphorylation of eEF2 (eEF2; 20 μmol·kg^−1·hr^−1 HMB): did not affect
phosphorylation of eEF2 (eEF2; 100 μmol·kg^−1·hr^−1 HMB): did not affect
phosphorylation of S6K1 (S6K1; [3]): increased
phosphorylation of S6K1 (S6K1; [4]): increased
phosphorylation of S6K1 (S6K1; [5]): not
phosphorylation of S6K1 (S6K1; [6]): increased
level of amino acid transporters (amino acid transporters): did not affect
expression of Atrogin-1 (Atrogin-1; 20 μmol·kg^−1·hr^−1 HMB): did not affect
expression of Atrogin-1 (Atrogin-1; 100 μmol·kg^−1·hr^−1 HMB): did not affect
fractional rate of protein synthesis ([2]; 20 μmol·kg^−1·hr^−1 HMB, longissimus dorsi, gastrocnemius, soleus, diaphragm, P<0.05): increased; also recorded: greatest impact
fractional rate of protein synthesis ([2]; 100 μmol·kg^−1·hr^−1 HMB, gastrocnemius, soleus, diaphragm): not significantly
fractional rate of protein synthesis ([2]; 100 μmol·kg^−1·hr^−1 HMB, longissimus dorsi muscle, P<0.05): increased
fractional rate of protein synthesis ([2]; 400 μmol·kg^−1·hr^−1 HMB, skeletal muscles): no significant effect; also recorded: least impact
effectiveness in increasing protein synthesis compared with leucine ([2]; HMB 20, 100 or 400 vs leucine 400 μmol·kg^−1·hr^−1, longissimus dorsi, gastrocnemius, soleus, diaphragm, duodenum, brain): equal to or more effective; also recorded: as effective as leucine
phosphorylation of 4EBP1 (4EBP1; [3]): increased
phosphorylation of 4EBP1 (4EBP1; [4]): increased
phosphorylation of 4EBP1 (4EBP1; [5]): not
phosphorylation of 4EBP1 (4EBP1; [6]): increased
formation of active eIF4E•eIF4G complex (e1F4E•e1F4G complex; [3]): increased
formation of active eIF4E•eIF4G complex (e1F4E•e1F4G complex; [4]): increased
formation of active eIF4E•eIF4G complex (e1F4E•e1F4G complex; [5]): not
formation of active eIF4E•eIF4G complex (e1F4E•e1F4G complex; [6]): increased
ratio of LC3-II/LC3-I (LC3-II/LC3-I; 20 μmol·kg^−1·hr^−1 HMB): did not affect
ratio of LC3-II/LC3-I (LC3-II/LC3-I; 100 μmol·kg^−1·hr^−1 HMB): did not affect
